Drawing on patent US9359345B2, “Thiazole derivatives as inhibitors of Bruton's tyrosine kinase” (Hoffmann-La Roche Inc., priority 2012, dated 2016), this text covers IC50 for ten compounds.

This assay addresses Bruton's Tyrosine Kinase (BTK), inactivated state (Homo sapiens (Human), UniProt Q06187). Description: Bruton's Tyrosine Kinase (BTK) Inhibition TR-FRET (Time Resolved FRET) competition assay. The assay is classed as binding. To be noted: Kinase Tracer 178, BTK-Eu, 18-24 h at 14° C. Here is the method: Bruton's Tyrosine Kinase (BTK) Inhibition TR-FRET (Time Resolved FRET) Assay
This BTK competition assay measures compound potency (IC50) for the inactivated state of Bruton's Tyrosine Kinase using FRET (Forster/Fluorescence Resonance Energy Transfer) technology. The BTK-Eu complex was incubated on ice one hour prior to use at a starting concentration of 50 nM BTK-Bioease™: 10 nM Eu-streptavidin (Perkin-Elmer Catalog# AD0062). The assay buffer consisted of 20 mM HEPES (pH 7.15), 0.1 mM DTT, 10 mM MgCl2, 0.5 mg/ml BSA with 3% Kinase Stabilizer (Fremont Biosolutions, Catalog # STB-K02). After 1 h, the reaction mixture from above was diluted 10 fold in assay buffer to make 5 nM BTK: 1 nM Eu-Streptavidin complex (donor fluorophore). 18 μl of a mixture of 0.11 nM BTK-Eu and 0.11 nM Kinase Tracer 178 (Invitrogen, Catalog # PV5593,) with BTK-Eu alone as no negative control, was then dispensed into 384-well flat bottom plates (Greiner, 784076). Compounds to be tested in assay were prepared as 10× concentrations and serial dilution in half-log increments was performed in DMSO so as to generate 10 point curves. To initiate the FRET reaction, compounds prepared as 10× stock in DMSO was added to the plates and the plates were incubated 18-24 h at 14° C.
After the incubation the plates were read on a BMG Pherastar Fluorescent plate reader (or equivalent) and used to measure the emission energy from the europium donor fluorophore (620 nm emission) and the FRET (665 nm emission). The negative control well values were averaged to obtain the mean minimum. The positive “no inhibitor” control wells were averaged to obtain the mean maximum. Percent of maximal FRET was calculated using following equation: % max FRET=100×[(FSRcmpd−FSRmean min)/(FSRmean max−FSRmean min)] where FSR=FRET Signal ratio. % Max FRET curves were plotted in Activity Base (Excel) and the IC50(%), hill slope, z′ and % CV were determined. The mean IC50 and standard deviation will be derived from duplicate curves (singlet inhibition curves from two independent dilutions) using Microsoft Excel.
Background: In TR-FRET formats the signal depends on donor and acceptor labels being close together.

pIC50: −log10 of the molar value.

Bruton's Tyrosine Kinase (BTK), inactivated state, sequence (Q06187 whole entry): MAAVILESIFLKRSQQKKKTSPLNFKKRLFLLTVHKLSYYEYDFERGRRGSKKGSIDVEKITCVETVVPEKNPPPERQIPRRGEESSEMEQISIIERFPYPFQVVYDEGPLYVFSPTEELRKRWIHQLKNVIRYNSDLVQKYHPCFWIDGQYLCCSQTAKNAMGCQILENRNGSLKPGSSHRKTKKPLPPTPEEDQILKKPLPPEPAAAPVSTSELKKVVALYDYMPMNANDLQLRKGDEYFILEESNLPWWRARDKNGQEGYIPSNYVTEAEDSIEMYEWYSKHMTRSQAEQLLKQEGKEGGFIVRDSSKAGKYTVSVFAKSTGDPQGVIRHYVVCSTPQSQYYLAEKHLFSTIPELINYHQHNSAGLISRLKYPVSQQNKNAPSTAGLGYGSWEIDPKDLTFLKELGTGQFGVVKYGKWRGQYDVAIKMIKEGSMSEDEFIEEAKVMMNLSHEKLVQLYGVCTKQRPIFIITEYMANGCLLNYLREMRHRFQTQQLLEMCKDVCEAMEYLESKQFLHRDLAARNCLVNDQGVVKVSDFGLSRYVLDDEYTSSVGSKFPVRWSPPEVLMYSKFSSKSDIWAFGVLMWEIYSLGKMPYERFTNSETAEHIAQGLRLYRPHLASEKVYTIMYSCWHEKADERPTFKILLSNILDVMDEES

One may read the pIC50 as the IC50 on a negative log10 scale, so that one unit is a factor of ten. The low end stands for a large IC50, the high end for a small IC50. With `CS(=O)(=O)N[C@@H]1CCCN(c2nc(C(N)=O)c(Nc3ccccn3)s2)C1` [Compound 8, 2-((R)-3-Methanesulfonylamino-piperidin-1-yl)-5-(pyridin-2-ylamino)-thiazole-4-carboxylic acid amide], the pIC50 is 5.30. With `NC(=O)c1nc(N2CCC[C@@H](NC(=O)Cc3ccccc3)C2)sc1Nc1ccccn1` [Compound 5, 2-((R)-3-Phenylacetylamino-piperidin-1-yl)-5-(pyridin-2-ylamino)-thiazole-4-carboxylic acid amide] the figure was 5.21. With `NC(=O)c1nc(N2CCC[C@@H](NS(=O)(=O)c3ccccc3)C2)sc1Nc1ccccn1` [Compound 9, 2-((R)-3-Benzenesulfonylamino-piperidin-1-yl)-5-(pyridin-2-ylamino)-thiazole-4-carboxylic acid amide], the negative-log IC50 (pIC50) was 5.79. Next, `CC(C)(C)OC(=O)N[C@@H]1CCCN(c2nc(C(N)=O)c(Nc3ccccn3)s2)C1` [Compound 3, {(R)-1-[4-Carbamoyl-5-(pyridin-2-ylamino)-thiazol-2-yl]-piperidin-3-yl}-carbamic acid tert-butyl ester]: 5.92; `CC(C)(C)c1ccc(C(=O)N[C@@H]2CCCN(c3nc(C(N)=O)c(Nc4ccccn4)s3)C2)cc1` [Compound 7, 2-[(R)-3-(4-tert-Butyl-benzoylamino)-piperidin-1-yl]-5-(pyridin-2-ylamino)-thiazole-4-carboxylic acid amide]: 6.33.

`NC(=O)c1nc(N2CCC[C@@H](NC(=O)N3Cc4ccc(Cl)cc4C3)C2)sc1Nc1ccccn1` [Compound 2, 5-Chloro-1,3-dihydro-isoindole-2-carboxylic acid {(R)-1-[4-carbamoyl-5-(pyridin-2-ylamino)-thiazol-2-yl]-piperidin-3-yl}-amide] had a negative-log IC50 (pIC50) of 5.11. With `Cc1cccc(CC(=O)N[C@@H]2CCCN(c3nc(C(N)=O)c(Nc4ccccn4)s3)C2)c1` [Compound 6, 5-(Pyridin-2-ylamino)-2-[(R)-3-(2-m-tolyl-acetylamino)-piperidin-1-yl]-thiazole-4-carboxylic acid amide] the figure was 5.12. In turn, `CC(C)(C)c1ccc(C(=O)N[C@@H]2CCCN(c3nc(C(N)=O)c(Nc4ccccn4)s3)C2)cn1` [Compound 4, 6-tert-Butyl-N-{(R)-1-[4-carbamoyl-5-(pyridin-2-ylamino)-thiazol-2-yl]-piperidin-3-yl}-nicotinamide] had a negative logarithm of the IC50 (pIC50) of 5.76. Next, `CC(=O)N[C@@H]1CCCN(c2nc(C(N)=O)c(Nc3ccccn3)s2)C1` [Compound 12, 2-((R)-3-Acetylamino-piperidin-1-yl)-5-(pyridin-2-ylamino)-thiazole-4-carboxylic acid amide]: 5.22; `CC(C)S(=O)(=O)N[C@@H]1CCCN(c2nc(C(N)=O)c(Nc3ccccn3)s2)C1` [Compound 10, 2-[(R)-3-(Propane-2-sulfonylamino)-piperidin-1-yl]-5-(pyridin-2-ylamino)-thiazole-4-carboxylic acid amide]: 5.24.
